Test results reported in patent EP1497263B1, “ACYL-3-CARBOXYPHENYLUREA DERIVATIVES, METHOD FOR PRODUCTION AND USE THEREOF” (Sanofi-Aventis Deutschland GmbH, priority 2002, dated 2003).

Tested on: Humane Glykogenphosphorylase a
Assay: Glycogen phosphorylase a activity test (reverse direction, release of inorganic phosphate)
Assay type: biochemical, human
Details: 10 µM test substance; 40 min at room temperature; duplicate determinations
Source text: Glykogenphosphorylase a Aktivitätstest
Der Effekt von Verbindungen auf die Aktivität der aktiven Form der Glykogenphosphorylase (GPa) wurde in der umgekehrten Richtung, durch Verfolgen der Glykogensynthese aus Glukose-1-Phosphat an Hand der Bestimmung der Freisetzung von anorganischem Phosphat, gemessen. Alle Reaktionen wurden als Doppelbestimmungen in Mikrotiterplatten mit 96-Vertiefungen (Half Area Plates, Costar Nr. 3696) durchgeführt, wobei die Änderung der Absorption auf Grund der Bildung des Reaktionsprodukts bei der weiter unten spezifizierten Wellenlänge in einem Multiskan Ascent Elisa Reader (Lab Systems, Finnland) gemessen wurde. Um die GPa Enzymaktivität in der umgekehrten Richtung zu messen, wurde die Umwandlung von Glukose-1-Phosphat in Glykogen und anorganisches Phosphat nach der allgemeinen Methode von Engers et al. (Engers HD, Shechosky S, Madsen NB, Can J Biochem 1970 Jul;48(7):746-754) mit folgenden Modifikationen gemessen: Humane Glykogenphosphorylase a (zum Beispiel mit 0,76 mg Protein / ml (Aventis Pharma Deutschland GmbH), gelöst in Pufferlösung E (25 mM β-Glyzerophosphat, pH 7,0, 1 mM EDTA und 1 mM Dithiotreitol) wurde mit Puffer T (50 mM Hepes, pH 7,0, 100 mM KCI, 2,5 mM. EDTA, 2,5 mM MgCl2·6H2O) und Zusatz von 5 mg/ml Glykogen auf eine Konzentration von 10 µg Protein/ml verdünnt. […]

| Compound | % Inhibition bei 10 µM |
| --- | --- |
| CCOC(=O)c1ccc(NC(=O)NC(=O)c2c(F)cccc2F)cc1 [Vergleichsbeispiel A] | 3% |
| Cc1ccccc1C(=O)NC(=O)Nc1cc(C(=O)O)ccc1Cl [compound 5] | 46% |
